{"source": "patent US20110251220A1", "about": "“Pharmaceutical compositions comprising gamma secretase modulators” (priority 2008, published 2011)", "key": {"MM cells": {"tested_on": "MM cells", "assay": "Proliferation assay (CellTiter-Glo), concentration of 50% growth inhibition", "type": "cell-based", "details": "Homo sapiens; read-out: Concentration at which 50% cell growth inhibition was observed", "procedure": "Human MM cell lines used were as follows: NCI-H929, OPM-2, LP-1, RPMI-8226, U266 (DSMZ, Braunschweig, Germany). Cell lines were cultured in RPMI 1640 medium (Biochrom, Berlin, Germany) supplemented with 10% heat-inactivated fetal calf serum (FCS, Gibco, Karlsruhe, Germany), 1 mM sodium pyruvate and 100 units/ml penicillin and 100 μg/ml streptomycin (Gibco). Human osteoclasts were obtained as described in the reference of Zavrski I, Krebbel H, Wildemann B, et al. Proteasome inhibitors abrogate osteoclast differentiation and osteoclast function. Biochem Biophys Res Commun. 2005; 333:200-205. Briefly, peripheral blood mononuclear cells (PBMC) were isolated from whole blood of healthy volunteers, using a Ficoll-Hypaque density gradient. The adherent fraction of the isolated mononuclear cells was cultured for 21 days in MEM medium (Sigma-Aldrich Chemie, Taufkirchen, Germany) supplemented with 10% FCS, 100 U/ml penicillin, 100 μg/ml streptomycin, 50 ng/ml M-CSF, and 25 ng/ml RANKL (osteoclastogenic medium), before coculture experiments and treatment with the inventive compounds started. Human osteoblasts were obtained according to Robey P G, Termine J D. Human bone cells in vitro. Calcif Tissue Int. 1985; 37:453-460 as described in Hecht M, Heider U, Kaiser M, von Metzler I, Sterz J, Sezer O. Osteoblasts promote migration and invasion of myeloma cells through upregulation of matrix metalloproteinases, urokinase plasminogen activator, hepatocyte growth factor and activation of p38 MAPK. Br J Haematol. 2007; 138: 446-458. Briefly, trabecular bone specimens from patients without malignant disease undergoing knee or hip surgery were minced and washed to remove bone marrow cells. The bone fragments were resuspended in Dulbecco's modified Eagle's medium (DMEM)/HAM's F12 medium (Biochrom, Berlin, Germany) supplemented with 10% FCS and cultured in tissue culture flasks until a confluent cell monolayer was obtained. Culturing of functional osteoblasts was confirmed by alkaline phosphatase (ALP) staining (kit from Sigma, USA), realtime RT-PCR analysis of expression of osteoblast markers (ALP, osteocalcin) and by von-Kossa staining before coculture and treatment experiments were started.\nThe compound according to example 1, hereinafter referred to as GSI15, (compound RH02015SC, Maybridge, Acros Organics, Geel, Belgium) was freshly dissolved as 26 mM stock solution in Dimethylsulfoxide (DMSO). Multiple myeloma therapeutics used were melphalan (marketed as Alkeran®, GlaxoSmithKline, Munich, Germany) and bortezomib (marketed as Velcade®, Janssen-Cilag, Neuss, Germany). Melphalan was freshly dissolved at 10 mg/ml in 0.9% NaCl-solution. Bortezomib was freshly dissolved at 100 ng/ml in 0.9% NaCl solution. Gamma Secretase Inhibitor (GSI) treatment for apoptosis assessment by AnnexinV/PI staining, cell cycle analysis and coculture experiments was performed in 6-well plates. GSI15 stock solution was added directly to the cell suspension. GSI treatment for assaying proliferation was performed in 96-well plates. 10,000 cells per well were seeded in 50 μl medium per well before 50 μl of a 2× solution of GSI15 prediluted in medium were added per well. […]\n(§1) For assaying proliferation/viability of cells CellTiter-Glo Luminescent Cell Viability Assay (Promega, Mannheim, Germany) was used. In this assay the number of viable cells at a given time point is determined by quantification of ATP present, which serves as a measure of metabolically active cells. […]"}, "MSC": {"tested_on": "MSC", "assay": "PARP cleavage in mesenchymal stem cells (MSC), mono- and coculture", "type": "cell-based, human", "details": "mono- and cocultures, high doses of GSI15", "procedure": "Whole cell extracts were prepared and quantified as described in Jundt F, Anagnostopoulos I, Forster R, Mathas S, Stein H, Dorken B. Activated Notch1 signaling promotes tumor cell proliferation and survival in Hodgkin and anaplastic large cell lymphoma. Blood. 2002; 99:3398-3403. Proteins (30 μg) were resolved by sodium dodecyl sulfate-polyacrylamide gel electrophoresis (SDS-PAGE) and transferred to nitrocellulose membranes. Protein loading was normalized by Ponceau red staining. Membranes were incubated with monoclonal mouse anti-Notch1 antibody (no. 552466; BD Biosciences, Heidelberg, Germany), anti-Jagged1 antibody (sc-8303; Santa Cruz Biotechnology), polyclonal rabbit anti-Delta antiboday (Santa Cruz Biotechnology), polyclonal rabbit anti-cleaved PARP (Asp214) antibody (Cell Signaling Technologies, Frankfurt a.M., Germany) or mouse monoclonal anti-tubulin antibody (Sigma, Deisenhofen, Germany).\nSecondary antibodies were goat anti-mouse (Promega, Mannheim, Germany), goat anti-rat (Dianova, Hamburg, Germany), and goat anti-rabbit (Santa Cruz Biotechnology) horseradish peroxidase (HRP)-conjugated antibodies. Detection was done using Pico chemi-luminescence reagent (Perbio Science, Bonn, Germany)."}, "LP-1 cells": {"tested_on": "LP-1 cells", "assay": "Proliferation assay (CellTiter-Glo), LP-1", "type": "cell-based, human", "details": "LP-1, 48 h treatment", "procedure": "Human MM cell lines used were as follows: NCI-H929, OPM-2, LP-1, RPMI-8226, U266 (DSMZ, Braunschweig, Germany). Cell lines were cultured in RPMI 1640 medium (Biochrom, Berlin, Germany) supplemented with 10% heat-inactivated fetal calf serum (FCS, Gibco, Karlsruhe, Germany), 1 mM sodium pyruvate and 100 units/ml penicillin and 100 μg/ml streptomycin (Gibco). Human osteoclasts were obtained as described in the reference of Zavrski I, Krebbel H, Wildemann B, et al. Proteasome inhibitors abrogate osteoclast differentiation and osteoclast function. Biochem Biophys Res Commun. 2005; 333:200-205. Briefly, peripheral blood mononuclear cells (PBMC) were isolated from whole blood of healthy volunteers, using a Ficoll-Hypaque density gradient. The adherent fraction of the isolated mononuclear cells was cultured for 21 days in MEM medium (Sigma-Aldrich Chemie, Taufkirchen, Germany) supplemented with 10% FCS, 100 U/ml penicillin, 100 μg/ml streptomycin, 50 ng/ml M-CSF, and 25 ng/ml RANKL (osteoclastogenic medium), before coculture experiments and treatment with the inventive compounds started. […]\nas §1"}, "Hes-1": {"tested_on": "Hes-1", "assay": "Quantitative RT-PCR of Notch1 target gene Hes-1 in OPM-2 cells", "type": "cell-based, human", "details": "OPM-2 cells treated with GSI15", "procedure": "Quantitative real-time reverse transcription-PCR (RT-PCR) analysis was performed using the following primer/probe sets: human Hes-1 (forward—[…], reverse—[…], probe—FAM-[…]-TAMRA) human TRAP5 (forward—[…], reverse—[…], probe FAM-[…]-TAMRA), human beta2-microglobulin (forward—ccc cca ctg aaa aag atg ag, reverse—atc caa tcc aaa tgc ggc, probe—FAM-CCTGCCGTGTGAACCATGTGACTTT-TAMRA) served as normalizer. Total RNA was extracted from MM cells, human osteoclasts or human osteoblasts using RNeasy Mini Kit (Qiagen, Hilden, Germany) following the manufacturer's instructions. For the RT-PCR reaction SuperScript™ III Platinum® One-Step Quantitative RT-PCR System (Invitrogen, Karlsruhe, Germany) was used. 50 ng total RNA were used per reaction, each RNA sample was analyzed in three replicates. PCR conditions (40 cycles) were the following: reverse transcription at 50° C. for 30 minutes, initial denaturation at 95° C. for 10 minutes, followed by 40 cycles of 45 seconds denaturation at 95° C. and 60 seconds annealing/extension at 62° C. Amplification of the house-keeping gene beta2-microglobulin was used to normalize the expression data. Normalized mRNA expression data were then calculated as values relative to the respective untreated sample."}}}
{"smiles": "CC(C)c1ccc(S(=O)(=O)Nc2cccnc2Oc2ccc(Cl)cc2)cc1", "note": "[Example 1, N-(2-(4-chlorophenoxy)pyridin-3-yl)-4-isopropylbenzenesulfonamide]", "values": [{"measurement": "IC50", "setting": "MM cells", "result": 20, "unit": "µM"}, {"measurement": "PARP cleavage (apoptosis)", "setting": "MSC", "result": "Neither in OBL nor in MSC apoptosis was induced"}, {"measurement": "concentration of maximum effect on proliferation", "setting": "LP-1 cells", "result": 60, "unit": "µM"}, {"measurement": "proliferation", "setting": "LP-1 cells", "result": "dose-dependent reduction of proliferation"}, {"measurement": "Hes-1 expression (Notch1 target gene)", "setting": "Hes-1", "result": "dose-dependently downregulated"}]}
